Results from ChEMBL document CHEMBL1909046, “DrugMatrix in vitro pharmacology data”.

How the values were obtained:
Calcitonin receptor = target: T1, Calcitonin receptor (Homo sapiens, UniProt P30988); format: cell membranes, Membrane; details: t47d; further: in other assays of this panel Not Active means under 50% inhibition at 10 µM
T1 sequence (P30988 whole entry): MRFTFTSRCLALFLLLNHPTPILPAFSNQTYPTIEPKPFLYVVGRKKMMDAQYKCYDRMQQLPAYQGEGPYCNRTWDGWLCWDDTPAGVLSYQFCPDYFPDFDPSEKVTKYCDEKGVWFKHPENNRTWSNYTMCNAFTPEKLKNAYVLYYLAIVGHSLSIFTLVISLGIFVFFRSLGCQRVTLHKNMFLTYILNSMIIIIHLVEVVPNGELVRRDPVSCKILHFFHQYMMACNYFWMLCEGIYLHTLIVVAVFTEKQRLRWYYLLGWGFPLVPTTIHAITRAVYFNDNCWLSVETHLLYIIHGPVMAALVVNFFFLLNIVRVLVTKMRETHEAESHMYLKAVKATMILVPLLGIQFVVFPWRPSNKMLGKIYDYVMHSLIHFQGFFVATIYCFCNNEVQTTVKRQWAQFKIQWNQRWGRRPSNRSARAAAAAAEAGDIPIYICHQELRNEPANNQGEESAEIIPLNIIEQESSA

D(1A) dopamine receptor = D(1A) dopamine receptor (Homo sapiens, UniProt P21728); assay: DRUGMATRIX: Dopamine D1 radioligand binding (ligand: [3H] SCH-23390); format: cell membranes, Membrane; details: cho; Not Active = under 50% inhibition at 10 µM
[1] = target: Kappa-type opioid receptor (Homo sapiens, UniProt P41145); assay: DRUGMATRIX: Opiate kappa (OP2, KOP) radioligand binding (ligand: [3H] Diprenorphine); format: cell membranes, HEK293, Membrane; details: hek293; Not Active = under 50% inhibition at 10 µM
[2] = target: T2, C-C chemokine receptor type 4 (Homo sapiens, UniProt P51679); format: cell membranes, Membrane; details: chem-1; further: in other assays of this panel Not Active means under 50% inhibition at 10 µM
T2 sequence (P51679 whole entry): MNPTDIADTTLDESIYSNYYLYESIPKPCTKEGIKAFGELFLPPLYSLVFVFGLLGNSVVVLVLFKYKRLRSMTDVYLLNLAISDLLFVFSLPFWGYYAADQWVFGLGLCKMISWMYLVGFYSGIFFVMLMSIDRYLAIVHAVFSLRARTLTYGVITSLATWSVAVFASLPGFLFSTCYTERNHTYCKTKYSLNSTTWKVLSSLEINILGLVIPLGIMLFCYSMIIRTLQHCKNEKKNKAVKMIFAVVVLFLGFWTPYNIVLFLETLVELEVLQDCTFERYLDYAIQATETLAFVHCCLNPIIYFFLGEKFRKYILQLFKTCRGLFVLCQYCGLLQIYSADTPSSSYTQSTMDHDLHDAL

Cytochrome P450 2C19 = Cytochrome P450 2C19 (Homo sapiens, UniProt P33261); details: bti-tn-5b1-4; further: in other assays of this panel Not Active means under 50% inhibition at 10 µM
[3] = target: T3, Cholecystokinin receptor type A (Homo sapiens, UniProt P32238); format: cell membranes, Membrane; details: 1321-n1; further: in other assays of this panel Not Active means under 50% inhibition at 10 µM
T3 sequence (P32238 whole entry): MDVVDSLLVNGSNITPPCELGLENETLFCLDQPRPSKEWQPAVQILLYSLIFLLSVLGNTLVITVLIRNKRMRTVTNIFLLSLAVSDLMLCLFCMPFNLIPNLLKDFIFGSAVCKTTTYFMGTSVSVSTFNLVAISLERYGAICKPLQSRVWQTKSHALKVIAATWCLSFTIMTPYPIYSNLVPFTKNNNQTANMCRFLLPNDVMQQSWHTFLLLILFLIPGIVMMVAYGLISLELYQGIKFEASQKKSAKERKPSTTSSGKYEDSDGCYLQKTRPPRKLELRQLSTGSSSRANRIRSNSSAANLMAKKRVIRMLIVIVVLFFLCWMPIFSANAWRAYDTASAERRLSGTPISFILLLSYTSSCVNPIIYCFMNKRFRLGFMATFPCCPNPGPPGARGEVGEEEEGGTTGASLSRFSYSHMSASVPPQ

Cytochrome P450 2A6 = target: T4, Cytochrome P450 2A6 (Homo sapiens, UniProt P11509); details: bti-tn-5b1-4; further: in other assays of this panel Not Active means under 50% inhibition at 10 µM
T4 sequence (P11509 whole entry): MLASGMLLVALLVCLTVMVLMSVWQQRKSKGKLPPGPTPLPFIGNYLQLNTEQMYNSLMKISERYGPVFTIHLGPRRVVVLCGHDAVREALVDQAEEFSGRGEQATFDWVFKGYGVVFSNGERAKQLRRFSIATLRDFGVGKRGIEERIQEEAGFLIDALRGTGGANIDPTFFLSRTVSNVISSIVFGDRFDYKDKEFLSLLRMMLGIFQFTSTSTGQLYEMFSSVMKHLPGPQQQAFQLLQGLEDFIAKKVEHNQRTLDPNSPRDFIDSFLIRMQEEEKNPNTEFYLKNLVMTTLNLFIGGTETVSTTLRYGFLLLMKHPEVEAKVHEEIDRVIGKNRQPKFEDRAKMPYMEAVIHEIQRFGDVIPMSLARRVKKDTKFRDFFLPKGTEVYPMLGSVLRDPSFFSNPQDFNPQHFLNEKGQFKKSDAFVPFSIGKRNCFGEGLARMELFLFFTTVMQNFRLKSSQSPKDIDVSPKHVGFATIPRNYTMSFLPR

Caspase-1 = target: T5, Caspase-1 (Homo sapiens, UniProt P29466); parameters: species or system Escherichia coli
T5 sequence (P29466 whole entry): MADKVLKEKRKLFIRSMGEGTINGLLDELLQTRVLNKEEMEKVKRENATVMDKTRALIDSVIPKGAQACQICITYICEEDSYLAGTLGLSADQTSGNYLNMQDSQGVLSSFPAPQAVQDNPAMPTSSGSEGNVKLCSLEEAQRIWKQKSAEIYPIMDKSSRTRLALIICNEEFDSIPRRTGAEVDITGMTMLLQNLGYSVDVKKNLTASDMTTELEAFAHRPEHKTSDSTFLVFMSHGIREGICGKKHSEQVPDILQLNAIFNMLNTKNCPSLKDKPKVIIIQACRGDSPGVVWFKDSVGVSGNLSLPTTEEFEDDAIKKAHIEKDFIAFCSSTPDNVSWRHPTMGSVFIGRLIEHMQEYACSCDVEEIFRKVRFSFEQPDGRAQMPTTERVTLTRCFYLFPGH

Sequence of Cytochrome P450 2C19 (P33261 whole entry): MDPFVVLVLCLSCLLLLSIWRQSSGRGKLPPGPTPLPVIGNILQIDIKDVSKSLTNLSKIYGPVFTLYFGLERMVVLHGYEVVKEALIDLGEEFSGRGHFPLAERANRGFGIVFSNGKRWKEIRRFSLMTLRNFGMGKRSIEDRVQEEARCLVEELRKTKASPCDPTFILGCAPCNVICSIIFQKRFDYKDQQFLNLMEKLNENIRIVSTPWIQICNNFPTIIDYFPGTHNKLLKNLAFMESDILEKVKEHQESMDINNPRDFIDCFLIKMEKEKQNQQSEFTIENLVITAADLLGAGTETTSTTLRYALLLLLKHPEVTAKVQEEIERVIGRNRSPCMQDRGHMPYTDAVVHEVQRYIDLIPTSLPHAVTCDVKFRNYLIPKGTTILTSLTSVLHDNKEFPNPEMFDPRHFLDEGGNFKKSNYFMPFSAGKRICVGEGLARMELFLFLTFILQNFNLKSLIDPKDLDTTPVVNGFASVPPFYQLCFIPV
Sequence of D(1A) dopamine receptor (P21728 whole entry): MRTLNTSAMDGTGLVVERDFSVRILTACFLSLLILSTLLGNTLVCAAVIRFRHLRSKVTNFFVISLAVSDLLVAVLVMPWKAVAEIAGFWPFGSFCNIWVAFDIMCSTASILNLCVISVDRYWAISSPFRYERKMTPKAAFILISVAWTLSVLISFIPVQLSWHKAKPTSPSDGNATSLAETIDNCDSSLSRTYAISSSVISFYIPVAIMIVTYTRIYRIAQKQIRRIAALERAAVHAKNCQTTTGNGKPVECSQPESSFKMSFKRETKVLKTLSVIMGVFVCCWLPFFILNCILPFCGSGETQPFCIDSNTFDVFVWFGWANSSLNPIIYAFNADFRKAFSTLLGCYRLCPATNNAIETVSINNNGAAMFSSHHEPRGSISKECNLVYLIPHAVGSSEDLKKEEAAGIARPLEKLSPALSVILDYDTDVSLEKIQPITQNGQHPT
Sequence of Kappa-type opioid receptor (P41145 whole entry): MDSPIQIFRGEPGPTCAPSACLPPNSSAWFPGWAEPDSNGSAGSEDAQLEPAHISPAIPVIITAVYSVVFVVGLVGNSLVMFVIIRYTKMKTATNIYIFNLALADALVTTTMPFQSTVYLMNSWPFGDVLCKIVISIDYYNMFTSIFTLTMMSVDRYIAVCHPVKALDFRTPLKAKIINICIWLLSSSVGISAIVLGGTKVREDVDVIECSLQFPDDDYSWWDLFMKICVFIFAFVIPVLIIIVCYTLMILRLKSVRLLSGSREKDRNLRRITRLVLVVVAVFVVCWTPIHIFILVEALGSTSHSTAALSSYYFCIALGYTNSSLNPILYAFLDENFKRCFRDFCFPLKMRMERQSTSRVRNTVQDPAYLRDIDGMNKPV

COc1cccc2c1C(=O)c1c(O)c3c(c(O)c1C2=O)C[C@@](O)(C(=O)CO)C[C@@H]3O[C@H]1C[C@H](N)[C@@H](O)[C@H](C)O1 [EPIRUBICIN]
Not Active: IC50 (Calcitonin receptor) | IC50 (D(1A) dopamine receptor) | IC50 [1] | IC50 [2] | IC50 (Cytochrome P450 2C19) | Ki (Cytochrome P450 2C19) | IC50 [3] | IC50 (Cytochrome P450 2A6) | Ki (Cytochrome P450 2A6) | IC50 (Caspase-1)

C[C@]12CC[C@@H]3c4ccc(OC(=O)c5ccccc5)cc4CC[C@H]3[C@@H]1CC[C@@H]2O [ESTRADIOL BENZOATE]
Not Active: IC50 (Calcitonin receptor) | IC50 (D(1A) dopamine receptor) | IC50 [1] | IC50 [2] | IC50 (Cytochrome P450 2C19) | Ki (Cytochrome P450 2C19) | IC50 [3] | IC50 (Cytochrome P450 2A6) | Ki (Cytochrome P450 2A6) | IC50 (Caspase-1)

C[C@]12CC[C@@H]3c4ccc(O)cc4CC[C@H]3[C@@H]1CC[C@@H]2O [ESTRADIOL]
Not Active: IC50 (Calcitonin receptor) | IC50 (D(1A) dopamine receptor) | IC50 [1] | IC50 [2] | IC50 (Cytochrome P450 2C19) | Ki (Cytochrome P450 2C19) | IC50 [3] | IC50 (Cytochrome P450 2A6) | Ki (Cytochrome P450 2A6) | IC50 (Caspase-1)

CC[C@@H](CO)NCCN[C@@H](CC)CO [ETHAMBUTOL]
Not Active: IC50 (Calcitonin receptor) | IC50 (D(1A) dopamine receptor) | IC50 [1] | IC50 [2] | IC50 (Cytochrome P450 2C19) | Ki (Cytochrome P450 2C19) | IC50 [3] | IC50 (Cytochrome P450 2A6) | Ki (Cytochrome P450 2A6) | IC50 (Caspase-1)

CC1(C)O[C@@H]2C[C@H]3[C@@H]4C[C@H](F)C5=CC(=O)C=C[C@]5(C)[C@H]4[C@@H](O)C[C@]3(C)[C@]2(C(=O)CO)O1 [FLUNISOLIDE]
Not Active: IC50 (Calcitonin receptor) | IC50 (D(1A) dopamine receptor) | IC50 [1] | IC50 [2] | IC50 (Cytochrome P450 2C19) | Ki (Cytochrome P450 2C19) | IC50 [3] | IC50 (Cytochrome P450 2A6) | Ki (Cytochrome P450 2A6) | IC50 (Caspase-1)

CC1(C)O[C@@H]2C[C@H]3[C@@H]4C[C@H](F)C5=CC(=O)C=C[C@]5(C)[C@@]4(F)[C@@H](O)C[C@]3(C)[C@]2(C(=O)CO)O1 [FLUOCINOLONE ACETONIDE]
Not Active: IC50 (Calcitonin receptor) | IC50 (D(1A) dopamine receptor) | IC50 [1] | IC50 [2] | IC50 (Cytochrome P450 2C19) | Ki (Cytochrome P450 2C19) | IC50 [3] | IC50 (Cytochrome P450 2A6) | Ki (Cytochrome P450 2A6) | IC50 (Caspase-1)

CC1(C)O[C@@H]2C[C@H]3[C@@H]4C[C@H](F)C5=CC(=O)CC[C@]5(C)[C@H]4[C@@H](O)C[C@]3(C)[C@]2(C(=O)CO)O1 [FLURANDRENOLIDE]
Not Active: IC50 (Calcitonin receptor) | IC50 (D(1A) dopamine receptor) | IC50 [1] | IC50 [2] | IC50 (Cytochrome P450 2C19) | Ki (Cytochrome P450 2C19) | IC50 [3] | IC50 (Cytochrome P450 2A6) | Ki (Cytochrome P450 2A6) | IC50 (Caspase-1)

Cc1ccc(S(=O)(=O)NC(=O)NN2CC3CCCC3C2)cc1 (stereo not given) [GLICLAZIDE]
Not Active: IC50 (Calcitonin receptor) | IC50 (D(1A) dopamine receptor) | IC50 [1] | IC50 [2] | IC50 (Cytochrome P450 2C19) | Ki (Cytochrome P450 2C19) | IC50 [3] | IC50 (Cytochrome P450 2A6) | Ki (Cytochrome P450 2A6) | IC50 (Caspase-1)

CC(C)Cc1ccc(C(C)C(=O)O)cc1 (stereo not given) [IBUPROFEN]
Not Active: IC50 (Calcitonin receptor) | IC50 (D(1A) dopamine receptor) | IC50 [1] | IC50 [2] | IC50 (Cytochrome P450 2C19) | Ki (Cytochrome P450 2C19) | IC50 [3] | IC50 (Cytochrome P450 2A6) | Ki (Cytochrome P450 2A6) | IC50 (Caspase-1)

COc1ccc2c(c1)c(CC(=O)O)c(C)n2C(=O)c1ccc(Cl)cc1 [INDOMETHACIN]
Not Active: IC50 (Calcitonin receptor) | IC50 (D(1A) dopamine receptor) | IC50 [1] | IC50 [2] | IC50 (Cytochrome P450 2C19) | Ki (Cytochrome P450 2C19) | IC50 [3] | IC50 (Cytochrome P450 2A6) | Ki (Cytochrome P450 2A6) | IC50 (Caspase-1)

CCc1c2c(nc3ccc(OC(=O)N4CCC(N5CCCCC5)CC4)cc13)-c1cc3c(c(=O)n1C2)COC(=O)[C@]3(O)CC [IRINOTECAN]
Not Active: IC50 (Calcitonin receptor) | IC50 (D(1A) dopamine receptor) | IC50 [1] | IC50 [2] | IC50 (Cytochrome P450 2C19) | Ki (Cytochrome P450 2C19) | IC50 [3] | IC50 (Cytochrome P450 2A6) | Ki (Cytochrome P450 2A6) | IC50 (Caspase-1)

CC(C(=O)O)c1cccc(C(=O)c2ccccc2)c1 (stereo not given) [KETOPROFEN]
Not Active: IC50 (Calcitonin receptor) | IC50 (D(1A) dopamine receptor) | IC50 [1] | IC50 [2] | IC50 (Cytochrome P450 2C19) | Ki (Cytochrome P450 2C19) | IC50 [3] | IC50 (Cytochrome P450 2A6) | Ki (Cytochrome P450 2A6) | IC50 (Caspase-1)

Nc1ccn([C@@H]2CS[C@H](CO)O2)c(=O)n1 [LAMIVUDINE]
Not Active: IC50 (Calcitonin receptor) | IC50 (D(1A) dopamine receptor) | IC50 [1] | IC50 [2] | IC50 (Cytochrome P450 2C19) | Ki (Cytochrome P450 2C19) | IC50 [3] | IC50 (Cytochrome P450 2A6) | Ki (Cytochrome P450 2A6) | IC50 (Caspase-1)

O=S(=O)([O-])CCS.[Na+] [MESNA]
Not Active: IC50 (Calcitonin receptor) | IC50 (D(1A) dopamine receptor) | IC50 [1] | IC50 [2] | IC50 (Cytochrome P450 2C19) | Ki (Cytochrome P450 2C19) | IC50 [3] | IC50 (Cytochrome P450 2A6) | Ki (Cytochrome P450 2A6) | IC50 (Caspase-1)

C#C[C@]1(O)CC[C@H]2[C@@H]3CCc4cc(OC)ccc4[C@H]3CC[C@@]21C [MESTRANOL]
Not Active: IC50 (Calcitonin receptor) | IC50 (D(1A) dopamine receptor) | IC50 [1] | IC50 [2] | IC50 (Cytochrome P450 2C19) | Ki (Cytochrome P450 2C19) | IC50 [3] | IC50 (Cytochrome P450 2A6) | Ki (Cytochrome P450 2A6) | IC50 (Caspase-1)

CC(=O)Nc1cccc(O)c1 [METACETAMOL]
Not Active: IC50 (Calcitonin receptor) | IC50 (D(1A) dopamine receptor) | IC50 [1] | IC50 [2] | IC50 (Cytochrome P450 2C19) | Ki (Cytochrome P450 2C19) | IC50 [3] | IC50 (Cytochrome P450 2A6) | Ki (Cytochrome P450 2A6) | IC50 (Caspase-1)

Cc1ncc([N+](=O)[O-])n1CCO [METRONIDAZOLE]
Not Active: IC50 (Calcitonin receptor) | IC50 (D(1A) dopamine receptor) | IC50 [1] | IC50 [2] | IC50 (Cytochrome P450 2C19) | Ki (Cytochrome P450 2C19) | IC50 [3] | IC50 (Cytochrome P450 2A6) | Ki (Cytochrome P450 2A6) | IC50 (Caspase-1)
